Measurements from publication PMC4604124, “In Vitro Characterization of the Pharmacological Properties of the Anti-Cancer Chelator, Bp4eT, and Its Phase I Metabolites” (PLoS ONE, 2015).
Where “and” joins values, the source holds several entries; their conditions need not be identical. Identical values can stand only once. Like-named read-outs stand apart in the source and are kept apart here.

Legend:
caspase 8 = experiment: Caspase activity, luminescent kit, caspase 8; type: cell-based, human; conditions: for kaspáza 8, raw signal / kaspáza 8, signal / viabilita: individual experiments by date; for kaspáza 8, raw signal, průměry / kaspáza 8, % kontroly / kaspáza 8, signal / viabilita, průměry: mean; for kaspáza 8, % kontroly / kaspáza 8, signal / viabilita / kaspáza 8, signal / viabilita, průměry: normalised to viability
Method: To assess the effect of the compounds on caspase activity, MCF-7 cells were incubated with 100 nM Bp4eT or its metabolites for 3, 24 or 72 h/37°C in 96-well plates, as described above. The cells were then lysed by adding 100 μL of cold lysis buffer (100 mM HEPES, 10 mM CHAPS, 10 mM D-L-dithiothreitol, pH 7.4) to 100 μL of medium in each well. Lysates were immediately frozen at -80°C. Thawed lysates were used to assess caspase activity using luminescent kits for caspases 3/7, 8 and 9 (Promega, Madison, WI, USA). The luminescence was measured using the Tecan Infinite 200M plate reader. Caspase activity in the experimental groups was corrected according to the cellular viability of each group and expressed as a percentage of activity of the untreated control (100%).

MCF-7 cells = experiment: Cell cycle analysis by flow cytometry (propidium iodide); type: cell-based, human; conditions: 0.1 μM, 72 h, control 33%
Method: To examine the effect of the agents on the cell cycle, MCF-7 cells were seeded in 60 mm Petri dishes at a density of 240,000 cells/dish and incubated with Bp4eT or its metabolites for 72 h/37°C. The cells were then harvested, fixed by ethanol and stained by propidium iodide (Molecular Probes, Eugene, OR, USA) for 30 min/37°C, as described previously. Cells were analyzed using Accuri C6 flow cytometer (Becton Dickinson and Company, San Jose, CA USA). Propidium iodide was excited at λex = 488 nm and fluorescence analyzed at λem = 585 nm (FL-2) with a total of 10,000 events collected per analysis.
(§1) SigmaStat for Windows 3.5 (Systat Software, San Jose, CA, USA) statistical software package was utilized to analyze results. The data are expressed as the mean ± SD of a given number of experiments. Statistical significance was determined using a one-way ANOVA with a Bonferroni post-hoc test or Student’s t-test. The results were considered to be statistically significant when p < 0.05. The IC50 values were calculated using CalcuSyn 2.0 software (Biosoft, Cambridge, UK). Cell cycle analysis was evaluated using MultiCycle AV Software (Phoenix Flow Systems, San Diego, CA, USA).

[1] = test system: HL-60 human promyelocytic leukemia cells; experiment: MTT cytotoxicity assay, HL-60 cells; type: cell-based; conditions: for IC50: MTT, read-out: IC50
Method: (§2) For cytotoxicity experiments, cancer cells were seeded at a density of 5,000 (MCF-7), 10,000 (HL-60) or 2,000 cells/well (HCT116 and A549) in 96-well plates (TPP) for 24 h/37°C prior to the addition of examined agents. The non-cancerous cells, 3T3 and H9c2 cells, were cultured for 24 h/37°C in 96-well plates at a density of 10,000 cells/well, the medium was then changed to serum- and pyruvate-free DMEM (Sigma-Aldrich) and incubated with the cells for another 24 h/37°C. The cytotoxic effects of Bp4eT and its metabolites were studied at different concentrations after a 72 h/37°C incubation. In order to aid the dissolution of the lipophilic ligands, 0.1% dimethyl sulfoxide (v/v) (DMSO; Sigma-Aldrich) was present in the culture medium of all groups. At this concentration, DMSO had no effect on cellular proliferation or viability.
(§3) The viability of cells were determined using an MTT assay (Sigma-Aldrich) according to previously established methods. The optical density of soluble MTT was measured at λ = 570 nm, subtracting the λ = 690 nm background using a Tecan Infinite 200M plate reader (Tecan Group, Männedorf, Switzerland). The viability or proliferation of experimental groups was expressed as a percentage of the untreated controls (100%).
as §1

[2] = test system: HCT116 human colorectal carcinoma cells; experiment: MTT cytotoxicity assay, HCT116 cells; type: cell-based; conditions: for IC50: MTT
Method: as §2, §3, §1

CCN=CNN=C(c1ccccc1)c1ccccn1 [Bp4eA, N ^3-ethyl-N ^1-[phenyl(pyridin-2-yl)methylene]formamidrazone]
kaspáza 8, raw signal (caspase 8; 3 hodiny): 2039 and 1218.5 and 1153 and 868.5 | kaspáza 8, raw signal, průměry (caspase 8; 3 hodiny): 1319.75 | kaspáza 8, % kontroly (caspase 8; 3 hodiny): 98.01 % kontroly | kaspáza 8, signal / viabilita (caspase 8; 3 hodiny): 21.0632 and 12.5873 and 11.9107 and 8.972 | kaspáza 8, signal / viabilita, průměry (caspase 8; 3 hodiny): 13.6332 | kaspáza 8, raw signal (caspase 8; 24 hodin): 1556 and 1108.5 and 1675.5 and 1199 | kaspáza 8, raw signal, průměry (caspase 8; 24 hodin): 1384.75 | kaspáza 8, % kontroly (caspase 8; 24 hodin): 91.04 % kontroly | kaspáza 8, signal / viabilita (caspase 8; 24 hodin): 16.2773 and 11.596 and 17.5273 and 12.5427 | kaspáza 8, signal / viabilita, průměry (caspase 8; 24 hodin): 14.4858 | kaspáza 8, raw signal (caspase 8; 72 hodin): 6752 and 5806 and 7204 and 6996 | kaspáza 8, raw signal, průměry (caspase 8; 72 hodin): 6689.5 | kaspáza 8, % kontroly (caspase 8; 72 hodin): 103.53 % kontroly | kaspáza 8, signal / viabilita (caspase 8; 72 hodin): 72.5709 and 62.4033 and 77.4291 and 75.1935 | kaspáza 8, signal / viabilita, průměry (caspase 8; 72 hodin): 71.8992 | Percentage of cells in the G2/M phase (MCF-7 cells): slight, but significant (p < 0.01–0.05) decrease | Therapeutic index, IC50 non-cancerous cells / IC50 neoplastic cells ([1]; 3T3/HL-60): 19.7 | Therapeutic index, IC50 non-cancerous cells / IC50 neoplastic cells ([1]; H9c2/HL-60): 8.0 | MTT, relative to control (0 = 100) ([1]; HL-60, 10 000 b/j, 3 μM, průměr (mean), sheet Bp4eA): 96.31 | MTT, relative to control (0 = 100) ([1]; HL-60, 10 000 b/j, 3 μM, single experiment (date), sheet Bp4eA): 98.9707 and 95.9296 and 99.8753 and 90.4839 | MTT, relative to control (0 = 100) ([1]; HL-60, 10 000 b/j, 10 μM, průměr (mean), sheet Bp4eA): 96.62 | MTT, relative to control (0 = 100) ([1]; HL-60, 10 000 b/j, 10 μM, single experiment (date), sheet Bp4eA): 97.2125 and 99.0002 and 94.4459 and 95.8253 | MTT, relative to control (0 = 100) ([1]; HL-60, 10 000 b/j, 30 μM, průměr (mean), sheet Bp4eA): 83.43 | MTT, relative to control (0 = 100) ([1]; HL-60, 10 000 b/j, 30 μM, single experiment (date), sheet Bp4eA): 80.8819 and 83.0208 and 86.8317 and 82.995 | MTT, relative to control (0 = 100) ([1]; HL-60, 10 000 b/j, 50 μM, průměr (mean), sheet Bp4eA): 62.90 | MTT, relative to control (0 = 100) ([1]; HL-60, 10 000 b/j, 50 μM, single experiment (date), sheet Bp4eA): 62.3054 and 62.5036 and 62.1604 and 64.6299 | MTT, relative to control (0 = 100) ([1]; HL-60, 10 000 b/j, 80 μM, průměr (mean), sheet Bp4eA): 16.51 | MTT, relative to control (0 = 100) ([1]; HL-60, 10 000 b/j, 100 μM, průměr (mean), sheet Bp4eA): 1.77 | MTT, relative to control (0 = 100) ([1]; HL-60, 10 000 b/j, 300 μM, průměr (mean), sheet Bp4eA): 1.66 | IC50 ([1]; HL-60, 10 000 b/j, single experiment (date), sheet Bp4eA): 51 µM and 54.1 µM and 55.3 µM | IC50 ([1]; Homo sapiens, HL-60, 72 h, HL-60, 72 h/37°C, mean ± SD, n ≥ 4): 52.1 ± 3.3 µM | IC50 ([1]; Homo sapiens, HL-60, HL-60, 10 000 b/j, průměr (mean), sheet Bp4eA): 52.1 µM | IC50 ([1]; Homo sapiens, HL-60, HL-60, 10 000 b/j, single experiment (date), sheet Bp4eA): 47.9 µM | Therapeutic index, IC50 non-cancerous cells / IC50 neoplastic cells ([2]; 3T3/HCT116): 9.2 | Therapeutic index, IC50 non-cancerous cells / IC50 neoplastic cells ([2]; H9c2/HCT116): 3.7 | MTT, relative to control (0 = 100) ([2]; HCT116, 2 000 b/j, 1 μM, průměr (mean), sheet Bp4eA): 97.58 | MTT, relative to control (0 = 100) ([2]; HCT116, 2 000 b/j, 1 μM, single experiment (date), sheet Bp4eA): 99.1509 and 100.455 and 96.4816 and 94.6996 and 96.3825 and 98.3223 | MTT, relative to control (0 = 100) ([2]; HCT116, 2 000 b/j, 3 μM, průměr (mean), sheet Bp4eA): 97.04 | MTT, relative to control (0 = 100) ([2]; HCT116, 2 000 b/j, 3 μM, single experiment (date), sheet Bp4eA): 97.9686 and 98.7085 and 92.1521 and 93.3267 and 100.675 and 99.4316 | MTT, relative to control (0 = 100) ([2]; HCT116, 2 000 b/j, 10 μM, průměr (mean), sheet Bp4eA): 94.04 | MTT, relative to control (0 = 100) ([2]; HCT116, 2 000 b/j, 10 μM, single experiment (date), sheet Bp4eA): 94.463 and 96.9011 and 92.7169 and 93.3863 and 93.3144 and 93.4876 | MTT, relative to control (0 = 100) ([2]; HCT116, 2 000 b/j, 30 μM, průměr (mean), sheet Bp4eA): 89.95 | MTT, relative to control (0 = 100) ([2]; HCT116, 2 000 b/j, 30 μM, single experiment (date), sheet Bp4eA): 90.1675 and 87.4242 and 84.0067 and 87.0754 and 95.7934 and 95.2315 | MTT, relative to control (0 = 100) ([2]; HCT116, 2 000 b/j, 100 μM, průměr (mean), sheet Bp4eA): 58.40 | MTT, relative to control (0 = 100) ([2]; HCT116, 2 000 b/j, 100 μM, single experiment (date), sheet Bp4eA): 42.8559 and 58.6495 and 64.6288 and 67.4584 | MTT, relative to control (0 = 100) ([2]; HCT116, 2 000 b/j, 300 μM, průměr (mean), sheet Bp4eA): 9.79 | MTT, relative to control (0 = 100) ([2]; HCT116, 2 000 b/j, 1000 μM, průměr (mean), sheet Bp4eA): 2.29 | IC50 ([2]; HCT116, 2 000 b/j, single experiment (date), sheet Bp4eA): 115 µM and 125 µM (2×) | IC50 ([2]; Homo sapiens, HCT-116, 72 h, HCT116, 72 h/37°C, mean ± SD, n ≥ 4): 112 ± 20.9 µM | IC50 ([2]; Homo sapiens, HCT-116, HCT116, 2 000 b/j, průměr (mean), sheet Bp4eA): 112 µM | IC50 ([2]; Homo sapiens, HCT-116, HCT116, 2 000 b/j, single experiment (date), sheet Bp4eA): 80.9 µM
